Oligonucleotides are written 5' to 3', each unit as a sugar letter and its base; * is a phosphorothioate linkage, no mark a phosphodiester; rarer units and linkages stand in square brackets, end groups in braces. Plain capitals give the bases only. {ppp} = triphosphate group; {Biotin} = biotin label U; r = 2'-OH (RNA)
T1: RIG-I (Homo sapiens, UniProt O95786)
T1 sequence (O95786 1-925): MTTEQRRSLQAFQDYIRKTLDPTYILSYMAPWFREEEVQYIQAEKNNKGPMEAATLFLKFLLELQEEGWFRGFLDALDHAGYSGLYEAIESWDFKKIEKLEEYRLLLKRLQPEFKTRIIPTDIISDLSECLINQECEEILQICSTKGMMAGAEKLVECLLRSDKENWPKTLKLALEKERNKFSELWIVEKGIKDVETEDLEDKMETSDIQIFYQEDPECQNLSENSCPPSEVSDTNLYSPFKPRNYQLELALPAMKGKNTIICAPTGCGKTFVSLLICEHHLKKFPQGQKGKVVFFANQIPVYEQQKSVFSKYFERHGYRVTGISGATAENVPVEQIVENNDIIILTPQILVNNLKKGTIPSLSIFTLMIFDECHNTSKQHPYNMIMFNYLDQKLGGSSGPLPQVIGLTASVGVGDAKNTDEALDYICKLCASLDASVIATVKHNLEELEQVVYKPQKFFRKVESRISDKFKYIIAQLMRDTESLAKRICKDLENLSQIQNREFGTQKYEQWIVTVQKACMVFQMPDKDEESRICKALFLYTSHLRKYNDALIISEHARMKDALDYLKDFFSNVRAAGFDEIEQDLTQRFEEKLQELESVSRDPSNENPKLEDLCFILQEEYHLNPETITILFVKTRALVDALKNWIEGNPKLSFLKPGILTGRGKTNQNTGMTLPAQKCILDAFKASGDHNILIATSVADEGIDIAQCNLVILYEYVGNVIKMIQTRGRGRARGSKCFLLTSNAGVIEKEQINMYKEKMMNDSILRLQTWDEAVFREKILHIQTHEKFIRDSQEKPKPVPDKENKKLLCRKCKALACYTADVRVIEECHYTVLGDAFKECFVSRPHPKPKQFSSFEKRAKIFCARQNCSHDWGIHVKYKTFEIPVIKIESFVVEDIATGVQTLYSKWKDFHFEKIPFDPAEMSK


Tests used:
RIG-I [1] = assay: Ligand binding studies: pull-down of RIG-I by biotinylated RNA; settings: CARD2 and RIG-I Δ Helicase_C
Procedure: (§1) Cell lysates were prepared according to Meister et al. (G. Meister et al., Mol Cell 15, 185 (Jul. 23, 2004)) with minor modifications. HEK 293 cells were transfected using high molecular weight (25 kDa) polyethylenimine (PEI; Sigma, 40.872-7). At a confluency of 80-90%, cells were transfected with a PEI:DNA ratio of 1.5:1. 24-36 hours after transfection cells were harvested and the cell pellet was resuspended in five pellet volumes of 10 mM KCl, 1.5 mM MgCl2, 0.5 mM dithiothreitol, 10 mM HEPES-NaOH (pH 7.9), 0.5 mM PMSF and incubated for ten minutes on ice. Subsequently cells were washed and the cell pellet was resuspended in two pellet volumes of the buffer described above and homogenized by douncing. The cell nuclei were removed from the cell lysate by centrifugation at 2.000 g for ten minutes. The supernatant was transferred into microcentrifuge tubes and cleared further by centrifugation at 2.000 g for ten minutes and further centrifugation for 30 minutes at 20.000 g to obtain the cytoplasmic extract. The concentration of KCl of the extract was subsequently raised to 100 mM by addition of 2 M KCl and glycerol was added to a percentage of 10%. For purification of FLAG-tagged RIG-IC complexes, cytoplasmic extracts were incubated in FLAG M2 agarose beads (Sigma). FLAG M2 agarose beads were washed once with 0.1 M glycine (pH 3.5) and equilibrated by washing with 1 M Tris-HCl (pH 8.0). […]

RIG-I [2] = target: T1, RIG-I; assay: as above; set-up: HEK 293 cells were transiently transfected with full length RIG-I, RIG-I CARD2 or RIG-I ΔHELIc; expressed in transfected cells; host or cells: HEK 293 (whole cell lysate); settings: whole cell lysate of HEK 293 cells overexpressing full length RIG-I
Procedure: as §1

PDC = assay: IFN-α production in human PDC (ELISA); format: cell-based; settings: 24 hours
Procedure: Human PBMC were prepared from whole blood donated by young healthy donors by Ficoll-Hypaque density gradient centrifugation (Biochrom, Berlin, Germany). PDC were isolated by MACS using the blood dendritic cell Ag (BCDA)-4 dendritic cell isolation kit from Miltenyi Biotec (Bergisch-Gladbach, Germany). Briefly, PDC were labelled with anti-BDCA-4 Ab coupled to colloidal paramagnetic microbeads and passed through a magnetic separation column twice (LS column, then MS column; Miltenyi Biotec). The purity of isolated PDC (lineage-negative, MHC-II-positive and CD123-positive cells) was above 95%. Before isolation of monocytes, PDC were depleted by MACS (LD column; Miltenyi Biotec) and then monocytes were isolated using the monocyte isolation kit II (Miltenyi Biotec). […] PDC cultures were additionally supplemented with 10 ng/ml IL-3 (R&D Systems). […] Vero (African green monkey kidney) and HEK 293T (human embryonic kidney) cells were maintained in Dulbecco's modified Eagle's medium supplemented with antibiotics and 5% or 10% foetal calf serum, respectively. BSR cells were propagated in Glasgow minimal essential medium supplemented with 10% newborn calf serum, phosphate broth, amino acids and antibiotics.
Human IFN-α was assessed in cell culture supernatants using the IFN-α module set (Bender MedSystems, Graz, Austria). The murine IP-10 ELISA was from Biosource (Solingen, Germany), the murine IFN-[…] ELISA was from PBL Biomedical Laboratories (Piscataway, USA). All ELISA procedures were performed, according to manufacturers' recommendations.

human primary monocytes = assay: IFN-α production in human primary monocytes transfected with RNA (ELISA); format: cell-based; settings: for IFN-α production in monocytes: 200 ng RNA transfected, 24 hours, ELISA
PBMC = assay: IFN-α induction in the presence of chloroquine; format: cell-based, human
RIG-I [3] = target: T1, RIG-I; assay: pIFN-beta-Luc reporter assay in HEK 293 cells transfected with RIG-I; format: cell-based; set-up: Only HEK 293 cells expressing full length RIG-I responded to 5′triphosphate RNA; FLAG; expressed in transfected cells; host or cells: HEK 293; settings: HEK 293 cells expressing full length RIG-I, 200 ng, 24 hours
Caspase-1 = Caspase-1 activation in B16 cells (western blot); format: cell-based, murine; settings: 24 hours
Procedure: (e) B16 cells were incubated with control siRNA, 3p-2.2 and poly(I:C) for 24 hours and assessed for caspase-1 activity via immunoblotting. α-Tublin served as loading control. One representative experiment of three is shown.
(§2) For Western blotting, samples were separated by SDS-PAGE and transferred to a nitrocellulose membrane (Amersham-Biosciences, UK) by semi-dry electroblotting. As primary antibody polyclonal rat anti-RIG-I (kind gift of Dr. Kremer), polyclonal rabbit anti-Bcl-2 (Santa Cruz, sc-7382) and rabbit anti-caspase-1 (Santa Cruz, sc-7148) antibody were used. As secondary antibody, peroxidase-conjugated anti-mouse or anti-rabbit antibody (Amersham-Biosciences) were used. Bound antibodies were visualized by enhanced chemiluminescence system (ECL) according to the manufacturer's protocol (Amersham-Biosciences).

RIG-I [4] = assay: Expression of endogenous RIG-I in B16 cells (western blot); format: cell-based, murine; settings: 6 hours
Procedure: (b) To determine the endogenous expression of RIG-I, B16 cells were stimulated with 3p-2.2 (1.2 μg/well) and murine IFN-β (1000 U/ml). After 6 hours cells were lysed and analyzed for endogenous expression of RIG-I by Western Blot. HEK293 cells overexpressing full-length RIG-I served as positive control. One representative experiment of two is shown.
as §2

| Molecule | IFN-α production in PDC (PDC) | IFN-α production in monocytes (human primary monocytes) | IFN-β promoter reporter expression (RIG-I [3]) | other results |
| --- | --- | --- | --- | --- |
| tri-G-AC-U-Bio: biotinylated 5′ triphosphate oligonucleotide, SEQ ID NO: 349, 3′ terminal biotinylated U (GGGAGACAGGCACCACACACACACACACUUU; RNA, 5' {ppp}, 3' {Biotin}, backbone not given here; biotin attached to the 3'-terminal U) | – | – | – | pull-down of truncated versions of RIG-I (RIG-I [1]): not very effective at pulling down; pull-down of full length RIG-I (RIG-I [2]): able to immunoprecipitate full length RIG-I |
| CCOCc1nc2c(N)nc3ccccc3c2n1CC(C)(C)O [R848, reference compound] | induce IFN-α in PDC | failed to produce IFN-α | – | – |
| 5′-ggGGGACGATCGTCgggggG-3′ [CpG-A ODN 2216, reference compound] | induce IFN-α in PDC | failed to produce IFN-α | – | effect of increasing concentrations of chloroquine on IFN-α induction (PBMC): inhibited IFN-α induction; IFN-α production with chloroquine (human primary monocytes; isolated monocytes): inactive |
| 5′-pppGGGGCUGACCCUGAAGUUCAUCUU-3′ [tri-GFPs] | – | comparable levels of IFN-α | strongly activated reporter expression | – |
| 5′-OHAGCUUAACCUGUCCUUCAA-3′ [synthetic isRNA9.2s, reference compound] | produced IFN-α | – | did not respond | – |
| 5′-pppGGGGAUGAACUUCAGGGUCAGCUU-3′ ({ppp}-rGrGrGrGrArUrGrArArCrUrUrCrArGrGrGrUrCrArGrCrUrU) [tri-GFPa] | – | comparable levels of IFN-α | strongly activated reporter expression | – |
| Polyinosinic:polycytidylic acid [poly(I:C)] | – | – | did not respond | cleavage of procaspase-1 (Caspase-1): increased cleavage of procaspase-1 to active subunit p10 |
| 5′-pppGGGAGACAGGCACCACACACACACACACUUU-3′ [tri-G-AC-U] | – | – | – | pull-down of full length RIG-I (RIG-I [2]): did not immunoprecipitate RIG-I |
| IFN-β: Recombinant murine IFNβ (protein, UniProt P01575 22-182, looked up) Interferon beta: INYKQLQLQERTNIRKCQELLEQLNGKINLTYRADFKIPMEMTEKMQKSYTAFAIQEMLQNVFLVFRNNFSSTGWNETIVVRLLDELHQQTVFLKTVLEEKQEERLTWEMSSTALHLKSYYWRVQRYLKLMKYNSYAWMVVRAEIFRNFLIIRRLTRNFQN | – | – | – | RIG-I-expression (RIG-I [4]): strongly upregulated |
